Assay results: article PMC11864180, “Dimeric assembly of F1-like ATPase for the gliding motility of Mycoplasma” (Science Advances, 2025)

Biological target: T1, G1-ATPase (dimeric F1-like ATPase, twin motor; type 2 ATPase) ([Mycoplasma] mobile, UniProt Q6KIC3+Q6KIC4)
T1 construct: gene atpA; native twin motor isolated from M. mobile cells; two alpha3beta3gamma units with GliD, GliE and PGK; PGK CTD only partly modelled; strain mutation lies in gli521, outside the complex; with F1-like ATPase gamma subunit (G1-gamma); GliD (bridge subunit of G1-ATPase); GliE (G1-ATPase subunit, 112 amino acids); Phosphoglycerate kinase
Assay: cryo-EM structure of the complex ([…] Å; local […] Å)
Format: binding
Details: Mg2+, endogenous nucleotide, isolated without added nucleotide, PBS pH 7.3, 1 mM MgCl2

Compound	cryo-EM structure of the complex (3.2 Å; local 3.1 Å) (catalytic site of alphaHO-betaHO, together with Pi)	cryo-EM structure of the complex (3.2 Å; local 3.1 Å) (catalytic site of alphaC-betaC and the three noncatalytic beta-alpha interfaces)
Nc1ncnc2c1ncn2[C@@H]1O[C@H](COP(=O)(O)OP(=O)(O)O)[C@@H](O)[C@H]1O [Mg-ADP]	αCβC and αHOβHO contained Mg-ATP and Mg-ADP + Pi, respectively	–
Nc1ncnc2c1ncn2[C@@H]1O[C@H](COP(=O)(O)OP(=O)(O)OP(=O)(O)O)[C@@H](O)[C@H]1O [Mg-ATP]	–	Mg-ATP was observed at the remaining three interfaces, hereafter referred to as the β-α interfaces
